Data: patent publication US7420056B2, “Substituted bicyclic imidazo-3-ylamine compounds” (Gruenenthal GmbH, priority 2004, dated 2008)

Target: mGluR5 receptor (Sus scrofa, UniProt I3LUI7)
Assay: Affinity for the mGluR5 receptor: inhibition of 3[H]-MPEP binding in pig brain homogenate
Details: 10 μM compound, 5 nM 3[H]-MPEP, read-out: mGluR5 receptor inhibition of ^3[H]-MPEP binding [10 μM] in % at a concentration of the example compounds of 10 μM
In short: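 Pig brain membranes (450 μg protein; hemispheres without medulla, cerebellum and pons) in 30 mM Hepes pH 8.0 were incubated 60 min at room temperature with 5 nM [3H]-MPEP and compound at 10 μM. Bound radioactivity was filtered and counted. Nonspecific binding was defined with 10 μM MPEP.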

mGluR5 receptor, sequence (I3LUI7 19-1212): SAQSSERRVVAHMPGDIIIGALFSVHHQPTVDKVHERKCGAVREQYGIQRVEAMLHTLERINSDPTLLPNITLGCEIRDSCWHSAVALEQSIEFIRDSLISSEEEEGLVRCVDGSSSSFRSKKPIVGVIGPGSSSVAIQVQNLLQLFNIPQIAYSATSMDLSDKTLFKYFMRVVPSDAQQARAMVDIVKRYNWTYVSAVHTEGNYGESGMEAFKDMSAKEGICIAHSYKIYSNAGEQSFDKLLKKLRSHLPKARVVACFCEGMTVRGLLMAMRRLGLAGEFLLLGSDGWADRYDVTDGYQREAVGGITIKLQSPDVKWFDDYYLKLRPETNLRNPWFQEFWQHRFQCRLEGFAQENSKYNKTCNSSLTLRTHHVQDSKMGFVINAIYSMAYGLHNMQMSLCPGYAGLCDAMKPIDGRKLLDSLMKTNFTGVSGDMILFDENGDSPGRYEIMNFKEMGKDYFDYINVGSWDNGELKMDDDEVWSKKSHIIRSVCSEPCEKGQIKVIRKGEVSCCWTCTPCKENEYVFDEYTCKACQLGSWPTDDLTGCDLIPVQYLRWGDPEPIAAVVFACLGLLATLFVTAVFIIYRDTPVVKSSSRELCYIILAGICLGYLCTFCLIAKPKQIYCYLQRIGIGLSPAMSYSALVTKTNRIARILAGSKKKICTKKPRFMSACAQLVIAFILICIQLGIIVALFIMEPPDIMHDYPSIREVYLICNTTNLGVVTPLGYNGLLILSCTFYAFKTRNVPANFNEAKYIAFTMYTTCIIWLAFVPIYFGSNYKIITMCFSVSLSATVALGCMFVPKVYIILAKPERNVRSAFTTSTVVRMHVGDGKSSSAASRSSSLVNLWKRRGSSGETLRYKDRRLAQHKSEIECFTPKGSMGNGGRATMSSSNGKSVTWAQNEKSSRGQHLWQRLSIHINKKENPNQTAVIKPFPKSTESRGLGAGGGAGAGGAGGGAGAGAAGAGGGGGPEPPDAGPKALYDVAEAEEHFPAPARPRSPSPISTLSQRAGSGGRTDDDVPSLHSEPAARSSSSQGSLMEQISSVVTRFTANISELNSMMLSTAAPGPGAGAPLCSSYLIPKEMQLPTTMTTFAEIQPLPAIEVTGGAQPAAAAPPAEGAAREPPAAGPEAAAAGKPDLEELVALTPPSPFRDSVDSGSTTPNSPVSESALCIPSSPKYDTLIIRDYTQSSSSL

inhibition at 10 µM [%]	SMILES
92	CCCC(C)(C)Nc1c(-c2ccc(C#Cc3ccccc3)s2)nc2cnccn12 [Example 205, N-(2-methylpentan-2-yl)-2-(5-(phenylethynyl)thiophen-2-yl)imidazo[1,2-a]pyrazin-3-amine]
63	C(#Cc1csc(-c2nc3cnccn3c2NCC2CCCCC2)c1)c1ccccc1 [Example 206, N-(cyclohexylmethyl)-2-(4-(phenylethynyl)thiophen-2-yl)imidazo[1,2-a]pyrazin-3-amine]
35	COc1ccccc1CNc1c(-c2ccc(C#Cc3ccccc3)o2)nc2cnccn12 [Example 207, N-(2-methoxybenzyl)-2-(5-(phenylethynyl)furan-2-yl)imidazo[1,2-a]pyrazin-3-amine]
57	C(#Cc1csc(-c2nc3ccccn3c2NCC2CCCCC2)c1)c1ccccc1 [Example 208, N-(cyclohexylmethyl)-2-(4-(phenylethynyl)thiophen-2-yl)imidazo[1,2-a]pyridin-3-amine]
55	CCCC(C)(C)Nc1c(-c2cc(C#Cc3ccccc3)cs2)nc2ccccn12 [Example 209, N-(2-methylpentan-2-yl)-2-(4-(phenylethynyl)thiophen-2-yl)imidazo[1,2-a]pyridin-3-amine]
68	Cc1cc(Br)c2nc(-c3cccc(C#Cc4cccc(C)n4)c3)c(NC(C)(C)CC(C)(C)C)n2c1 [Example 210, 8-bromo-6-methyl-2-(3-((6-methylpyridin-2-yl)ethynyl)phenyl)-N-(2,4,4-trimethylpentan-2-yl)imidazo[1,2-a]pyridin-3-amine]
82	Cc1cc(Br)c2nc(-c3cccc(C#Cc4ccccn4)c3)c(NC3CCCC3)n2c1 [Example 211, 8-bromo-N-cyclopentyl-6-methyl-2-(3-(pyridin-2-ylethynyl)phenyl)imidazo[1,2-a]pyridin-3-amine]
90	C(#Cc1csc(-c2nc3cnccn3c2NC2CCCC2)c1)c1ccccc1 [Example 212, N-cyclopentyl-2-(4-(phenylethynyl)thiophen-2-yl)imidazo[1,2-a]pyrazin-3-amine]
84	CC(Nc1c(-c2cc(C#Cc3ccccc3)cs2)nc2cnccn12)c1ccccc1 (stereo not drawn) [Example 213, N-(1-phenylethyl)-2-(4-(phenylethynyl)thiophen-2-yl)imidazo[1,2-a]pyrazin-3-amine]
77	CCCC(C)(C)Nc1c(-c2cc(C#Cc3ccccc3)cs2)nc2cnccn12 [Example 214, N-(2-methylpentan-2-yl)-2-(4-(phenylethynyl)thiophen-2-yl)imidazo[1,2-a]pyrazin-3-amine]
51	Cc1cc(Br)c2nc(-c3ccc(C#Cc4ccccn4)o3)c(NC3CCCCC3)n2c1 [Example 215, 8-bromo-N-cyclohexyl-6-methyl-2-(5-(pyridin-2-ylethynyl)furan-2-yl)imidazo[1,2-a]pyridin-3-amine]
49	C(#Cc1ccc(-c2nc3cnccn3c2NC2CCCC2)o1)c1ccccc1 [Example 216, N-cyclopentyl-2-(5-(phenylethynyl)furan-2-yl)imidazo[1,2-a]pyrazin-3-amine]
62	COc1cccc(CCNc2c(-c3cc(C#Cc4ccccc4)cs3)nc3nc(C)ccn23)c1 [Example 217, N-(3-methoxyphenethyl)-7-methyl-2-(4-(phenylethynyl)thiophen-2-yl)imidazo[1,2-a]pyrimidin-3-amine]
38	CC(C)(C)CC(C)(C)Nc1c(-c2ccc(C#Cc3ccccc3)s2)nc2c(OCc3ccccc3)cccn12 [Example 218, 8-(benzyloxy)-2-(5-(phenylethynyl)thiophen-2-yl)-N-(2,4,4-trimethylpentan-2-yl)imidazo[1,2-a]pyridin-3-amine]
33	C(#Cc1csc(-c2nc3c(OCc4ccccc4)cccn3c2NC2CCCC2)c1)c1ccccc1 [Example 219, 8-(benzyloxy)-N-cyclopentyl-2-(4-(phenylethynyl)thiophen-2-yl)imidazo[1,2-a]pyridin-3-amine]
31	CCCC(C)(C)Nc1c(-c2cc(C#Cc3ccccc3)cs2)nc2c(OCc3ccccc3)cccn12 [Example 220, 8-(benzyloxy)-N-(2-methylpentan-2-yl)-2-(4-(phenylethynyl)thiophen-2-yl)imidazo[1,2-a]pyridin-3-amine]
40	Fc1ccc(CNc2c(-c3ccc(C#Cc4ccccc4)o3)nc3ccc(Cl)cn23)cc1 [Example 221, 6-chloro-N-(4-fluorobenzyl)-2-(5-(phenylethynyl)furan-2-yl)imidazo[1,2-a]pyridin-3-amine]
33	CCCCNc1c(-c2cc(C#Cc3ccccc3)cs2)nc2ccc(Br)c(C)n12 [Example 222, 6-bromo-N-butyl-5-methyl-2-(4-(phenylethynyl)thiophen-2-yl)imidazo[1,2-a]pyridin-3-amine]

inhibition at 10 µM [%]	SMILES
80	Cc1cccn2c(Nc3ccco3)c(-c3ccc(C#Cc4ccccc4)o3)nc12 [Example 223, N-(furan-2-yl)-8-methyl-2-(5-(phenylethynyl)furan-2-yl)imidazo[1,2-a]pyridin-3-amine]
69	C(#Cc1ccc(-c2nc3ccccn3c2Nc2ccco2)o1)c1ccccc1 [Example 224, N-(furan-2-yl)-2-(5-(phenylethynyl)furan-2-yl)imidazo[1,2-a]pyridin-3-amine]
43	CCCc1ccn2c(Nc3ccco3)c(-c3ccc(C#Cc4ccccc4)o3)nc2c1 [Example 225, N-(furan-2-yl)-2-(5-(phenylethynyl)furan-2-yl)-7-propylimidazo[1,2-a]pyridin-3-amine]
41	Cc1cc(C)n2c(Nc3cccc(C(F)(F)F)c3)c(-c3cc(C#Cc4ccccc4)cs3)nc2n1 [Example 226, 5,7-dimethyl-2-(4-(phenylethynyl)thiophen-2-yl)-N-(3-(trifluoromethyl)phenyl)imidazo[1,2-a]pyrimidin-3-amine]
61	Cc1cc(Br)cn2c(NCCc3ccc(Cl)cc3)c(-c3cc(C#Cc4ccccc4)cs3)nc12 [Example 227, 6-bromo-N-(4-chlorophenethyl)-8-methyl-2-(4-(phenylethynyl)thiophen-2-yl)imidazo[1,2-a]pyridin-3-amine]
43	Clc1ccc(CCNc2c(-c3cc(C#Cc4ccccc4)cs3)nc3cc(-c4ccccc4)ccn23)cc1 [Example 228, N-(4-chlorophenethyl)-7-phenyl-2-(4-(phenylethynyl)thiophen-2-yl)imidazo[1,2-a]pyridin-3-amine]
30	C(#Cc1csc(-c2nc3cc(-c4ccccc4)ccn3c2NCCc2ccccc2)c1)c1ccccc1 [Example 229, N-phenethyl-7-phenyl-2-(4-(phenylethynyl)thiophen-2-yl)imidazo[1,2-a]pyridin-3-amine]
60	Cc1cc(C)n2c(NCc3ccc(Cl)cc3)c(-c3cc(C#Cc4ccccc4)cs3)nc2c1 [Example 230, N-(4-chlorobenzyl)-5,7-dimethyl-2-(4-(phenylethynyl)thiophen-2-yl)imidazo[1,2-a]pyridin-3-amine]
62	Cc1c(Br)ccc2nc(-c3cc(C#Cc4ccccc4)cs3)c(NCc3ccc(Cl)cc3)n12 [Example 231, 6-bromo-N-(4-chlorobenzyl)-5-methyl-2-(4-(phenylethynyl)thiophen-2-yl)imidazo[1,2-a]pyridin-3-amine]
75	Cc1cc(Br)c2nc(-c3cc(C#Cc4ccccc4)cs3)c(NCc3ccc(Cl)cc3)n2c1 [Example 232, 8-bromo-N-(4-chlorobenzyl)-6-methyl-2-(4-(phenylethynyl)thiophen-2-yl)imidazo[1,2-a]pyridin-3-amine]
75	CCCc1cccc2nc(-c3cc(C#Cc4ccccc4)cs3)c(NCCc3cccc(OC)c3)n12 [Example 233, N-(3-methoxyphenethyl)-2-(4-(phenylethynyl)thiophen-2-yl)-5-propylimidazo[1,2-a]pyridin-3-amine]
64	Cc1cc(Br)cn2c(NCCc3cccs3)c(-c3cc(C#Cc4ccccc4)cs3)nc12 [Example 234, 6-bromo-8-methyl-2-(4-(phenylethynyl)thiophen-2-yl)-N-(2-(thiophen-2-yl)ethyl)imidazo[1,2-a]pyridin-3-amine]
32	C(#Cc1csc(-c2nc3cc(-c4ccccc4)ccn3c2NCCc2cccs2)c1)c1ccccc1 [Example 235, 7-phenyl-2-(4-(phenylethynyl)thiophen-2-yl)-N-(2-(thiophen-2-yl)ethyl)imidazo[1,2-a]pyridin-3-amine]
66	CCCC(C)(C)Nc1c(-c2ccc(C#Cc3ccccc3)s2)nc2c(Br)cc(Br)cn12 [Example 236, 6,8-dibromo-N-(2-methylpentan-2-yl)-2-(5-(phenylethynyl)thiophen-2-yl)imidazo[1,2-a]pyridin-3-amine]
36	Cc1cccc(C)c1Nc1c(-c2cc(C#Cc3ccccc3)cs2)nc2c(C)cc(Br)cn12 [Example 237, 6-bromo-N-(2,6-dimethylphenyl)-8-methyl-2-(4-(phenylethynyl)thiophen-2-yl)imidazo[1,2-a]pyridin-3-amine]
92	C(#Cc1ccccn1)c1cccc(-c2nc3cnccn3c2NC2CCCCC2)c1 [Example 238, N-cyclohexyl-2-(3-(pyridin-2-ylethynyl)phenyl)imidazo[1,2-a]pyrazin-3-amine]
60	CC(C)(C)CC(C)(C)Nc1c(-c2cccc(C#Cc3ccccn3)c2)nc2cnccn12 [Example 239, 2-(3-(pyridin-2-ylethynyl)phenyl)-N-(2,4,4-trimethylpentan-2-yl)imidazo[1,2-a]pyrazin-3-amine]
95	C(#Cc1ccccn1)c1ccc(-c2nc3cnccn3c2NC2CCCC2)cc1 [Example 240, N-cyclopentyl-2-(4-(pyridin-2-ylethynyl)phenyl)imidazo[1,2-a]pyrazin-3-amine]
